Experimental data taken from patent US11261186B2, “Biaryl derivative as GPR120 agonist” (LG CHEM, LTD., priority 2014, dated 2022).

target: T1, hGPR120 (Homo sapiens, UniProt Q5NUL3); assay: Measurement of Activity of GPR120 Agonist (Cell-Based Assay), Calcium 5 dye fluorescence; details: CHO-K1 cells expressing Ga16 and hGPR120
T1 construct: expressed in transfected cells; host or cells: CHO-K1
T1 sequence (Q5NUL3 1-361): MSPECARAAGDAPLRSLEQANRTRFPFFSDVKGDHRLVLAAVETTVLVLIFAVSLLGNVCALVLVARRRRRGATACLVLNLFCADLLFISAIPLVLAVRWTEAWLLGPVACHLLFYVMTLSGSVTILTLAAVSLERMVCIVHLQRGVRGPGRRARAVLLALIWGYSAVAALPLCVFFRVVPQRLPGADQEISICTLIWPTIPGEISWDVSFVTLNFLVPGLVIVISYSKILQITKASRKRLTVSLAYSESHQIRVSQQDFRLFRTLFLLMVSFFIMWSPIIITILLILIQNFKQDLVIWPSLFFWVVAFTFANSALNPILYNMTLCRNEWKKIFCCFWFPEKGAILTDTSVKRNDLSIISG
Method in brief: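 CHO-K1 cells co-expressing Gα16 and hGPR120 were seeded, cultured 18 h at 37 °C, then loaded 1 h with Calcium 5 dye. Serially diluted agonists (final 0.5% DMSO) were added and fluorescence read at Ex 485/Em 525 nm, expressed as percent relative to 1% DMSO-only wells.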

Row | Structure (SMILES) | EC50 [nM]
1 | O=C(O)CCCCc1ccc(-c2cccnc2SC2CCC2)cc1F [Example 249, 5-[4-(2-cyclobutylsulfanyl-pyridin-3-yl)-2-fluoro-phenyl]-pentanoic acid] | < 200
2 | O=C(O)CCCCc1c(F)cc(-c2cccnc2OCC2CCC2)cc1F [Example 250, 5-[4-(2-cyclobutylmethoxy-pyridin-3-yl)-2,6-difluoro-phenyl]-pentanoic acid] | < 200
3 | O=C(O)CCCCc1c(F)cc(-c2cccnc2OC2CCC2)cc1F [Example 251, 5-[4-(2-cyclobutoxy-pyridin-3-yl)-2,6-difluoro-phenyl]-pentanoic acid] | < 200
4 | O=C(O)CCCCc1c(F)cc(-c2cccnc2OCC2CC2)cc1F [Example 252, 5-[4-(2-cyclopropylmethoxy-pyridin-3-yl)-2,6-difluoro-phenyl]-pentanoic acid] | < 200
5 | CC1(C)Cc2cc(Cl)cc(-c3cc(F)c(OCCCC(=O)O)c(F)c3)c2O1 [Example 253, 4-[4-(5-chloro-2,2-dimethyl-2,3-dihydro-benzofuran-7-yl)-2,6-difluoro-phenoxy]-butyric acid] | 200 to 2000
6 | CC1(C)Cc2cc(Cl)cc(-c3cc(F)c(SCCCC(=O)O)c(F)c3)c2O1 [Example 254, 4-[4-(5-chloro-2,2-dimethyl-2,3-dihydro-benzofuran-7-yl)-2,6-difluoro-phenylsulfanyl]-butyric acid] | 200 to 2000
7 | CN(CCCC(=O)O)c1c(F)cc(-c2cc(Cl)cc3c2OC(C)(C)C3)cc1F [Example 255, 4-{[4-(5-chloro-2,2-dimethyl-2,3-dihydro-benzofuran-7-yl)-2,6-difluoro-phenyl]-methyl-amino}-butyric acid] | < 200
8 | CC(CCCC(=O)O)c1c(F)cc(-c2cc(Cl)cc3c2OC(C)(C)C3)cc1F (stereo not drawn) [Example 256, 5-[4-(5-chloro-2,2-dimethyl-2,3-dihydro-benzofuran-7-yl)-2,6-difluoro-phenyl]-hexanoic acid] | 200 to 2000
9 | COc1ccc(-c2cc(F)c(OCCCC(=O)O)c(F)c2)c2c1OC(C)(C)C2 [Example 257, 4-[2,6-difluoro-4-(7-methoxy-2,2-dimethyl-2,3-dihydro-benzofuran-4-yl)-phenoxy]-butyric acid] | < 200
10 | COc1ccc(-c2cc(F)c(SCCCC(=O)O)c(F)c2)c2c1OC(C)(C)C2 [Example 258, 4-[2,6-difluoro-4-(7-methoxy-2,2-dimethyl-2,3-dihydro-benzofuran-4-yl)-phenylsulfanyl]-butyric acid] | < 200
11 | COc1ccc(-c2cc(F)c(N(C)CCCC(=O)O)c(F)c2)c2c1OC(C)(C)C2 [Example 259, 4-{[2,6-difluoro-4-(7-methoxy-2,2-dimethyl-2,3-dihydro-benzofuran-4-yl)-phenyl]-methyl-amino}-butyric acid] | < 200
12 | COc1ccc(-c2cc(F)c(C(C)CCCC(=O)O)c(F)c2)c2c1OC(C)(C)C2 (stereo not drawn) [Example 260] | < 200
13 | O=C(O)CCCOc1c(F)cc(-c2cccc3c2OC2(CCCC2)C3)cc1F [Example 261, 4-(2,6-difluoro-4-spiro[3H-benzofuran-2,1′-cyclopentan]-7-yl-phenoxy)-butyric acid] | < 200
14 | O=C(O)CCCSc1c(F)cc(-c2cccc3c2OC2(CCCC2)C3)cc1F [Example 262, 4-(2,6-difluoro-4-spiro[3H-benzofuran-2,1′-cyclopentan]-7-yl-phenylsulfanyl)-butyric acid] | < 200
15 | O=C(O)CCC1CCc2cc(-c3cccnc3OC3CCCC3)ccc2S1 (stereo not drawn) [Example 271, 3-[6-(2-cyclopentoxy-pyridin-3-yl)-thiochroman-2-yl]-propionic acid] | < 200
16 | O=C(O)CCC1CCc2cc(-c3cccnc3OC3CCC3)ccc2O1 (stereo not drawn) [Example 277, 3-[6-(2-cyclobutoxy-pyridin-3-yl)-chroman-2-yl]-propionic acid] | 200 to 2000
17 | O=C(O)CCC1CCc2cc(-c3cccnc3OC3CCC3)ccc2S1 (stereo not drawn) [Example 278, 3-[6-(2-cyclobutoxy-pyridin-3-yl)-thiochroman-2-yl]-propionic acid] | < 200

More lines, now with the values ahead:

Row | EC50 [nM] | Structure (SMILES)
18 | < 200 | CN(CCCC(=O)O)c1c(F)cc(-c2cccc3c2OC2(CCCC2)C3)cc1F [Example 263, 4-(2,6-difluoro-N-methyl-4-spiro[3H-benzofuran-2,1′-cyclopentan]-7-yl-anilino)-butyric acid]
19 | 200 to 2000 | CC(CCCC(=O)O)c1c(F)cc(-c2cccc3c2OC2(CCCC2)C3)cc1F (stereo not drawn) [Example 264, 5-(2,6-difluoro-4-spiro[3H-benzofuran-2,1′-cyclopentan]-7-yl-phenyl)-hexanoic acid]
20 | 200 to 2000 | COC(=O)N1c2c(cc(F)cc2-c2cc(F)c(OCCCC(=O)O)c(F)c2)CC1(C)C [Example 265, 7-[4-(3-carboxy-propoxy)-3,5-difluoro-phenyl]-5-fluoro-2,2-dimethyl-2,3-dihydro-indol-1-carboxylic acid methyl ester]
21 | 200 to 2000 | CC1(C)Cc2cc(F)cc(-c3cc(F)c(OCCCC(=O)O)c(F)c3)c2N1 [Example 266, 4-[2,6-difluoro-4-(5-fluoro-2,2-dimethyl-2,3-dihydro-1H-indol-7-yl)-phenoxy]-butyric acid]
22 | 200 to 2000 | CC1(C)Cc2c(ccc(F)c2-c2cc(F)c(OCCCC(=O)O)c(F)c2)N1 [Example 268, 4-[2,6-difluoro-4-(5-fluoro-2,2-dimethyl-2,3-dihydro-1H-indol-4-yl)-phenoxy]-butyric acid]
23 | < 200 | CC(C)Sc1ncccc1-c1ccc2c(c1)CCC(CCC(=O)O)S2 (stereo not drawn) [Example 270, 3-[6-(2-isopropylsulfanyl-pyridin-3-yl)-thiochroman-2-yl]-propionic acid]
24 | < 200 | O=C(O)CCC1CCc2cc(-c3cccnc3SC3CCC3)ccc2O1 (stereo not drawn) [Example 272, 3-[6-(2-cyclobutylsulfanyl-pyridin-3-yl)-chroman-2-yl]-propionic acid]
25 | 2000 to 20000 | COc1ccc(-c2ccc3c(c2)CCC(CCC(=O)O)O3)c2c1OC(C)(C)C2 (stereo not drawn) [Example 273, 3-[6-(7-methoxy-2,2-dimethyl-2,3-dihydro-benzofuran-4-yl)-chroman-2-yl]-propionic acid]
26 | 200 to 2000 | COc1ccc(-c2ccc3c(c2)CCC(CCC(=O)O)S3)c2c1OC(C)(C)C2 (stereo not drawn) [Example 274, 3-[6-(7-methoxy-2,2-dimethyl-2,3-dihydro-benzofuran-4-yl)-thiochroman-2-yl]-propionic acid]
27 | < 200 | O=C(O)CCC1CCc2cc(-c3cccnc3SC3CCC3)ccc2S1 (stereo not drawn) [Example 275, 3-[6-(2-cyclobutylsulfanyl-pyridin-3-yl)-thiochroman-2-yl]-propionic acid]
28 | 200 to 2000 | O=C(O)CCC1CCc2cc(-c3cccnc3OCC3CC3)ccc2O1 (stereo not drawn) [Example 276, 3-[6-(2-cyclopropylmethoxy-pyridin-3-yl)-chroman-2-yl]-propionic acid]
29 | < 200 | O=C(O)CCC1CCc2cc(-c3cccnc3OCC3CC3)ccc2S1 (stereo not drawn) [Example 279, 3-[6-(2-cyclopropylmethoxy-pyridin-3-yl)-thiochroman-2-yl]-propionic acid]
30 | < 200 | O=C(O)CCC1CCc2cc(-c3cccnc3SC3CCCC3)ccc2O1 (stereo not drawn) [Example 280, 3-[6-(2-cyclopentylsulfanyl-pyridin-3-yl)-chroman-2-yl]-propionic acid]
31 | < 200 | O=C(O)CCC1CCc2cc(-c3cccnc3SC3CCCC3)ccc2S1 (stereo not drawn) [Example 281, 3-[6-(2-cyclopentylsulfanyl-pyridin-3-yl)-thiochroman-2-yl]-propionic acid]
32 | 200 to 2000 | CC1(C)Cc2cc(Cl)cc(-c3ccc4c(c3)CCC(CCC(=O)O)S4)c2O1 (stereo not drawn) [Example 282, 3-[6-(5-chloro-2,2-dimethyl-2,3-dihydro-benzofuran-7-yl)-thiochroman-2-yl]-propionic acid]
33 | 200 to 2000 | O=C(O)CCC1CCc2cc(-c3cccc4c3OC3(CCCC3)C4)ccc2S1 (stereo not drawn) [Example 283, 3-(6-spiro[3H-benzofuran-2,1′-cyclopentan]-7-yl-thiochroman-2-yl)-propionic acid]
34 | 200 to 2000 | O=C(O)CCC1CCc2cc(-c3cccnc3OC3CCOCC3)ccc2S1 (stereo not drawn) [Example 284, 3-{6-[2-(tetrahydro-pyran-4-yloxy)-pyridin-3-yl]-thiochroman-2-yl}-propionic acid]
35 | 2000 to 20000 | COc1ccc(-c2cc(F)c(N3CC(CC(=O)O)C3)c(F)c2)c2c1OC(C)(C)C2 [Example 285, {1-[2,6-difluoro-4-(7-methoxy-2,2-dimethyl-2,3-dihydro-benzofuran-4-yl)-phenyl]-azetidin-3-yl}-acetic acid]
36 | < 200 | CC(C)Sc1cccc(-c2ccc3c(c2)CCC(CCC(=O)O)S3)n1 (stereo not drawn) [Example 286, 3-[6-(6-isopropylsulfanyl-pyridin-2-yl)-thiochroman-2-yl]-propionic acid]
37 | < 200 | O=C(O)CCCOc1c(F)cc(-c2cccc3c2OC2(CCCC2)O3)cc1F [Example 287, 4-(2,6-difluoro-4-spiro[1,3-benzodioxol-2,1′-cyclopentan]-4-yl-phenoxy)butanoic acid]
38 | < 200 | O=C(O)CCCOc1ccc(-c2cccc3c2OC2(CCCC2)O3)cc1 [Example 288, 4-(4-spiro[1,3-benzodioxol-2,1′-cyclopentan]-4-ylphenoxy)butanoic acid]
39 | 200 to 2000 | O=C(O)CCCOc1ccc(-c2cccc3c2OC2(CCCC2)O3)cc1F [Example 289, 4-(2-fluoro-4-spiro[1,3-benzodioxol-2,1′-cyclopentan]-4-yl-phenoxy)butanoic acid]
